How the values were obtained:
AR [1] = molecular target: T1, AR (Homo sapiens, UniProt P10275); experiment: FRET-based AR conformation change reporter (CARY) in 3T3L1 adipose cells; type: cell-based, murine; set-up: Full length AR with cyan fluorescent protein (CFP) or yellow fluorescent protein (YFP) fused to either end (CARY); expressed in transfected cells; details: 3T3L1 adipose-derived cells
T1 sequence (P10275 1-920): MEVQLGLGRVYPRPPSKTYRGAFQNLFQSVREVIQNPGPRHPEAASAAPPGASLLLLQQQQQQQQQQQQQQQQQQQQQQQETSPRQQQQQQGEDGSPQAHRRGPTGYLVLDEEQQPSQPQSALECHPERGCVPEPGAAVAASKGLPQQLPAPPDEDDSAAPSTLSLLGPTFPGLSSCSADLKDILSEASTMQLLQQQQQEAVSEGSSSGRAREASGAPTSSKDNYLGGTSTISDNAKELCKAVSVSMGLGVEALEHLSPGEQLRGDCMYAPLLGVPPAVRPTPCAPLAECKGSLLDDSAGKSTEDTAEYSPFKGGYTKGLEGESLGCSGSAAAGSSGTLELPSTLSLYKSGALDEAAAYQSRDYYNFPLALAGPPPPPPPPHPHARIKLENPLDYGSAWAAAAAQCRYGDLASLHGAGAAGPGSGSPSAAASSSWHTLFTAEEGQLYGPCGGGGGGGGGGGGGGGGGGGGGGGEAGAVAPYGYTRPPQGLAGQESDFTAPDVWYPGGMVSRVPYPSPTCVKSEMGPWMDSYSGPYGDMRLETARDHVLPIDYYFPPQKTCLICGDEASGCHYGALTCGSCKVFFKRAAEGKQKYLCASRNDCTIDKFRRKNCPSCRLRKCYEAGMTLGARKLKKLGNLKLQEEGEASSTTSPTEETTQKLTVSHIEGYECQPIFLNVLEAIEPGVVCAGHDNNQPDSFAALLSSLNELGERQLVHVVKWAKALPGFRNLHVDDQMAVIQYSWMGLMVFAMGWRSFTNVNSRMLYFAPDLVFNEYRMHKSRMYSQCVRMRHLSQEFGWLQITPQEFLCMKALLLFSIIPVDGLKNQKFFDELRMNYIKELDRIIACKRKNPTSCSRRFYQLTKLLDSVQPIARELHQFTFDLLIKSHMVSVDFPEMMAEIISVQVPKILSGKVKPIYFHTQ
Procedure: Creation of stable C-AR-Y reporter cell lines. Cell lines listed above were either transfected with a plasmid or a virus containing the CFP-AR-YFP construct preceding an IRES and hygromycin resistance gene and clonal stable cell lines selected. Qualification criteria for the transfected cell lines were described by Jones et al, ACS Chem Biol, 3(7):412-8 (2008).
Screen for AR-modulators. Screening was performed essentially as described by Jones et al, ACS Chem Biol, 3(7):412-8 (2008). Briefly, C-AR-Y reporter GTI-7 were transferred to 96 well plates and treated with library compounds for 24 hours. […] The compounds to be tested were from the NCI/DTP Open Chemical Repository's Approved Oncology Drugs Set II, Diversity Set II and Mechanistic Set. […] After 24 hours, medium was aspirated and FRET was measured as previously described using a monochromator-based fluorescence plate reader (M1000, Tecan, Inc.). Jones et al, ACS Chem Biol, 3(7):412-8 (2008). […]
In order to identify potential cell-type selective AR modulators, the FRET-based assay of AR conformation change was utilized. […] This produces an accurate and quantifiable read-out of AR activity. […] Candidate hits were then further evaluated by dose response. […] In addition to FRET, AR transcriptional activity was also assessed in several cell lines by transfecting cells with a luciferase reporter driven by the human PSA promoter. […]

AR [2] = experiment: Western blot of AR levels in GT1-7 CARY cells; type: cell-based, murine
Description: Western Blot. Cell lysates was separated on a 6% SDS page gel and transferred to a nitrocellulose membrane. The membrane was blocked for one hour in 5% skim milk dissolved in TBS-T and probed with the following antibodies ([…]): FoxM1 (rabbit, GeneTex), AR: 441 (mouse, Santa Cruz Biotechnology), β-catenin (rabbit 9562, Cell Signaling Technology), p84 (mouse, GeneTex) and actin (mouse, Santa Cruz Biotechnology). Horse radish peroxidase linked secondary antibodies were used along with ECL reagents for visualization. Western blots were quantified using Quantity One analysis software (BioRad).
It has been previously reported that thiostrepton causes decreased levels of FOXM1. Hegde et al, Nat Chem, 3(9):725-31 (2011); Gartel, Front Oncol, 3:150 (2013). […] The nuclear association between FOXM1 and β-catenin increases the transcriptional activity of both factors. Zhang et al, Cancer Cell, 20(4):427-42 (2011). β-catenin is a key AR coactivator in a variety of cells. Yang, J Biol Chem, 277(13):11336-44 (2002); Truica et al, Cancer Res, 60(17):4709-13 (2000). The inventors believed that thiostrepton could inhibit AR activity by limiting access to nuclear β-catenin via FOXM1 depletion. […] As expected, control actin protein was observed primarily in cytoplasmic fraction.

Row | SMILES | AR inhibitor activity in words (AR [1]) | AR levels (Western blot) (AR [2])
1 | C=C(NC(=O)C(=C)NC(=O)c1csc(C2=N[C@@H]3c4csc(n4)[C@H]4NC(=O)c5csc(n5)[C@H]([C@](C)(O)[C@@H](C)O)NC(=O)[C@H]5CSC(=N5)/C(=C/C)NC(=O)[C@H]([C@@H](C)O)NC(=O)c5csc(n5)[C@]3(CC2)NC(=O)[C@H](C)NC(=O)C(=C)NC(=O)C(=C)NC(=O)[C@H](C(C)C)N[C@@H]2C=Cc3c([C@H](C)O)cc(nc3[C@H]2O)C(=O)O[C@@H]4C)n1)C(N)=O [NSC285116, siomycin A] | little to no activity | –
2 | C=C(NC(=O)C(=C)NC(=O)c1csc(C2=N[C@@H]3c4csc(n4)[C@H]4NC(=O)c5csc(n5)[C@H]([C@](C)(O)[C@@H](C)O)NC(=O)[C@H]5CSC(=N5)/C(=C/C)NC(=O)[C@H]([C@@H](C)O)NC(=O)c5csc(n5)[C@]3(CC2)NC(=O)[C@H](C)NC(=O)C(=C)NC(=O)[C@H](C)NC(=O)[C@H]([C@@H](C)CC)N[C@@H]2C=Cc3c([C@H](C)O)cc(nc3[C@H]2O)C(=O)O[C@@H]4C)n1)C(N)=O [thiostrepton] | – | not consistently decreased

Source: US11167007B2, “FOXM1 modulators and uses thereof” (City of Hope, priority 2016, dated 2021)
